Results from patent US9102648B1, “Bioavailable diacylhydrazine ligands for modulating the expression of exogenous genes via an ecdysone receptor complex” (Intrexon Corporation, priority 2003, dated 2015).

Legend:
[1] = biological target: GAL4 DBD (1-147)-CfEcR(DEF)/VP16AD-βRXREF-LmUSPEF (Choristoneura fumiferana, UniProt O77240); assay: cell-based; settings: for Fold Induction, 27-63 Assay, 3.3 uM: 3.3 uM ligand; for Fold Induction, 27-63 Assay, 3.3 uM / Fold Induction, 27-63 Assay, 33 uM: RLU ligand treated / RLU DMSO treated cells; for Fold Induction, 27-63 Assay, 3.3 uM / Fold Induction, 27-63 Assay, 33 uM / EC50: average of two wells; for Fold Induction, 27-63 Assay, 33 uM: 33 uM ligand; for 27-63 assay Rel Max FI: maximum fold induction at any concentration relative to that of GS-E ligand, CHO 27-63 cells; for EC50: read-out: 27-63 assay EC50, CHO 27-63 stable cell line, luciferase reporter
Excerpt: GAL4 DBD (1-147)-CfEcR(DEF)/VP16AD-βRXREF-LmUSPEF:
The wild-type D, E, and F domains from spruce budworm Choristoneura fumiferana EcR (“CfEcR-DEF”; SEQ ID NO: 1) were fused to a GAL4 DNA binding domain (“Gal4DBD1-147”; SEQ ID NO: 2) and placed under the control of a phosphoglycerate kinase promoter (“PGK”; SEQ ID NO: 3). Helices 1 through 8 of the EF domains from Homo sapiens RXRβ (“HsRXRβ-EF”; nucleotides 1-465 of SEQ ID NO: 4) and helices 9 through 12 of the EF domains of Locusta migratoria Ultraspiracle Protein (“LmUSP-EF”; nucleotides 403-630 of SEQ ID NO: 5) were fused to the transactivation domain from VP16 (“VP16AD”; SEQ ID NO: 6) and placed under the control of an elongation factor-1α promoter (“EF-1α”; SEQ ID NO: 7). Five consensus GAL4 response element binding sites (“5XGAL4RE”; comprising 5 copies of a GAL4RE comprising SEQ ID NO: 8) were fused to a synthetic TATA minimal promoter (SEQ ID NO: 9) and placed upstream of the luciferase reporter gene (SEQ ID NO: 10).
CHO cells were transiently transfected with transcription cassettes for GAL4 DBD (1-147) CJEcR(DEF) and for VP16AD βRXREF-LmUSPEF controlled by ubiquitously active cellular promoters (PGK and EF-la, respectively) on a single plasmid. Stably transfected cells were selected by Zeocin resistance. Individually isolated CHO cell clones were transiently transfected with a GAL4 RE-luciferase reporter (pFR Luc). 27-63 clone was selected using Hygromycin.
Cells were trypsinized and diluted to a concentration of 2.5×10^4 cells mL. 100 μL of cell suspension was placed in each well of a 96 well plate and incubated at 37° C. under 5% CO2 for 24 h. Ligand stock solutions were prepared in DMSO and diluted 300 fold for all treatments. Dose response testing consisted of 8 concentrations ranging from […] to 0.01 μM.
Luciferase reporter gene expression was measured 48 h after cell treatment using Bright-Glo™ Luciferase Assay System from Promega (E2650). Luminescence was detected at room temperature using a Dynex MLX microtiter plate luminometer.
(§1) Each assay was conducted in two separate wells, and the two values were averaged. Fold inductions were calculated by dividing relative light units (“RLU”) in ligand treated cells with RLU in DMSO treated cells. EC50s were calculated from dose response data using a three-parameter logistic model.

[2] = biological target: T1, Bombyx mori EcR (VP16 fusion, CVBE switch construct) (Bombyx mori, UniProt P49881); assay: Z3 Assay (HEK-293 cells with CVBE and 6XEcRE LacZ, β-galactosidase reporter); settings: for Fold Induction, Z3 Assay, 3.3 uM: 3.3 uM ligand; for Fold Induction, Z3 Assay, 3.3 uM / Fold Induction, Z3 Assay, 33 uM: ligand treated / DMSO treated cells; for Fold Induction, Z3 Assay, 3.3 uM / EC50 / Fold Induction, Z3 Assay, 33 uM: average of two wells; for Z3 assay Rel Max FI: maximum fold induction at any concentration relative to that of GS-E ligand; for Z3 assay Rel Max FI / EC50: HEK-293 Z3 cells; for EC50: read-out: Z3 assay EC50, β-galactosidase reporter; for Fold Induction, Z3 Assay, 33 uM: 33 uM ligand
T1 sequence (P49881 86-606): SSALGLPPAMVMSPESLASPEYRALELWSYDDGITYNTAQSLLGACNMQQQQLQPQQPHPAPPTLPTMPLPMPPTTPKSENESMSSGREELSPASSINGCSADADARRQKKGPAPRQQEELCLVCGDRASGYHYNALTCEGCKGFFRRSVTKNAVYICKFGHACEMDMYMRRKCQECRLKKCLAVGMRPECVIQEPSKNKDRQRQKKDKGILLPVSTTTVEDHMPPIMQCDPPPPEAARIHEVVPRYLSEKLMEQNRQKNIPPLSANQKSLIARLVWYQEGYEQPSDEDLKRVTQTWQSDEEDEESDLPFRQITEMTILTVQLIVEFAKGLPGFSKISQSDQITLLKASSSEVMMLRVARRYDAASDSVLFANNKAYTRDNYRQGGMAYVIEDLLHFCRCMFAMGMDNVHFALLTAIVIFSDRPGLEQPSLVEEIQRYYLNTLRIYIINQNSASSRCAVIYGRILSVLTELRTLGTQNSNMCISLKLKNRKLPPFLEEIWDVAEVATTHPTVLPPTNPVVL
T1 sequence (P19793 1-462 partner): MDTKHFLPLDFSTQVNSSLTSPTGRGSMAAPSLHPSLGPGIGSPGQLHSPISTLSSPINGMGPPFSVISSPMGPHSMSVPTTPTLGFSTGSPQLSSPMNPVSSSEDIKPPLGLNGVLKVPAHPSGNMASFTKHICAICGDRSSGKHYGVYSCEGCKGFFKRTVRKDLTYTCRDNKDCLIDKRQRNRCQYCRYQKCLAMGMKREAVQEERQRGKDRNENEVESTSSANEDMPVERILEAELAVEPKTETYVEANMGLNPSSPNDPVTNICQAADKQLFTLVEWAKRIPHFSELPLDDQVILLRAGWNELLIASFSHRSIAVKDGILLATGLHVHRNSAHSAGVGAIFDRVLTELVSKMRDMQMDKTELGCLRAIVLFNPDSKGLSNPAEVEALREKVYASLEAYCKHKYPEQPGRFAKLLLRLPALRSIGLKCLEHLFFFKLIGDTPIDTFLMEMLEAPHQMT
Excerpt: Dr. F. Gage provided a population of stably transformed cells containing CVBE and 6XEcRE as described in Suhr, S. T., Gil, E. B., Senut M. C., Gage, F. H. (1998) Proc. Natl. Acad. Sci. USA 95, 7999-804. Human 293 kidney cells, also referred to as HEK-293 cells, were sequentially infected with retroviral vectors encoding first the switch construct CVBE, and subsequently the reporter construct 6XEcRE Lac Z. The switch construct contained the coding sequence for amino acids 26-546 from Bombyx mori EcR (BE) (Iatrou) inserted in frame and downstream of the VP16 transactivation domain (VBE). A synthetic ATG start codon was placed under the control of cytomegalovirus (CVBE) immediate early promoter and flanked by long terminal repeats (LTR). The reporter construct contained six copies of the ecdysone response element (EcRE) binding site placed upstream of LacZ and flanked on both sides with LTR sequences (6XEcRE).
Dilution cloning was used to isolate individual clones. Clones were selected using 450 ug/mL G418 and 100 ng/mL puromycin. Individual clones were evaluated based on their response in the presence and absence of test ligands.
Human 293 kidney cells stably transformed with CVBE and 6XEcRE LacZ were maintained in Minimum Essential Medium (Mediates, 10-010-CV) containing 10% FBS (Life Technologies, 26140-087), […] G418 (Mediates, 30-234-CR), and […] (Sigma, P-7255), at 37° C. in an atmosphere containing 5% CO2 and were subculture when they reached 75% confluence.
Z3 cells were seeded into 96-well tissue culture plates at a concentration of 2.5×10^3 cells per well and incubated at 37° C. in 5% CO2 for twenty-four hours. Stock solutions of ligands were prepared in DMSO. Ligand stock solutions were diluted 100 fold in media and 50 μL of this diluted ligand solution ([…]) was added to cells. The final concentration of DMSO was maintained at 0.03% in both controls and treatments.
Reporter gene expression was evaluated 48 hours after treatment of cells, β-galactosidase activity was measured using Gal Screen™ bioluminescent reporter gene assay system from Tropix (GSY1000). Fold induction activities were calculated by dividing relative light units (“RLU”) in ligand treated cells with RLU in DMSO treated cells. Luminescence was detected at room temperature using a Dynex MLX microtiter plate luminometer.
Flanking both constructs are long terminal repeats, G418 and puromycin are selectable markers, CMV is the cytomegalovirus promoter, VBE is coding sequence for amino acids 26-546 from Bombyx mori EcR inserted downstream of the VP16 transactivation domain, 6×EcRE is six copies of the ecdysone response element, lacZ encodes for the reporter enzyme β-galactosidase.
as §1

SMILES	Fold Induction, Z3 Assay, 3.3 uM [2]	Z3 assay Rel Max FI [2]	EC50 [2] [nM]	further results
CCc1ccc(C(=O)NN(C(=O)c2cc(OC)c(C)c(OC)c2)C(c2ccccc2)C(C)(C)C)cc1 (racemic) [RG-115847]	–	–	–	Fold Induction, 27-63 Assay, 3.3 uM [1]: 2729; Fold Induction, 27-63 Assay, 33 uM [1]: 848; 27-63 assay Rel Max FI [1]: 1.120; EC50 [1]: 1100 nM
CCc1ccc(C(=O)NN(C(=O)c2cc(F)ccc2[N+](=O)[O-])C(C)(C)C)c(F)c1 [RG-115086]	433	0.433	692	–
CCc1c(OC)cccc1C(=O)NN(C(=O)c1cc2ccccc2n1C)C(C)(C)C [RG-115106, N′-2-Ethyl-3-methoxybenzoyl-N-t-butyl-N-(N-methylindole-2-carbonyl) hydrazide]	68	0.457	2570	–
CCc1ccc(C(=O)NN(C(=O)c2cc(C)nc(Cl)c2)C(C)(C)C)c(F)c1 [RG-115112]	618	0.618	309	–
CCc1ccc(C(=O)NN(C(=O)c2cc(Cl)nc(Cl)c2)C(C)(C)C)c(F)c1 [RG-115128]	110	0.538	245	–
CCc1ccc(C(=O)NN(C(=O)c2cccc([N+](=O)[O-])c2)C(C)(C)C)c(F)c1 [RG-115167]	73	0.533	240	–
Cc1cc(C)cc(C(=O)N(NC(=O)c2ccc3c(c2)OC(F)(F)O3)C(C)(C)C)c1 [RG-115256]	647	0.527	692	–
Cc1c(O)cccc1C(=O)NN(C(=O)c1cc(Cl)nc(Cl)c1)C(C)(C)C [RG-115261]	31	0.498	29500	–
CCc1ccc(C(=O)NN(C(=O)c2cccc(OC)c2)C(C)(C)C)c(F)c1 [RG-115269]	112	0.552	437	–
COCc1c(OC)cccc1C(=O)NN(C(=O)c1cc(Cl)cc(Cl)c1)C(C)(C)C [RG-115306]	5	0.424	3470	–
CC(C)(C)N(NC(=O)c1ccc2c(c1)OC(F)(F)O2)C(=O)c1ccccc1[N+](=O)[O-] [RG-115352]	7	0.265	45700	–
CCc1ccc(C(=O)NN(C(=O)c2ccccc2OC)C(C)(C)C)c(F)c1 [RG-115422]	204	0.769	398	–
COc1cc(C(=O)N(NC(=O)c2ccc3c(c2Cl)COCO3)C(C)(C)C)cc(OC)c1C [RG-115441]	118	0.759	126	–
CCc1c(OC)cccc1C(=O)NN(C(=O)c1cccc2c1OCO2)C(C)(C)C [RG-115496]	874	0.878	1180	–
COc1cc(C(=O)N(NC(=O)c2cccc(OC(C)=O)c2C)C(C)(C)C)cc(OC)c1C [RG-115557]	426	0.566	1700	–
CCc1c(C(=O)NN(C(=O)c2ccc(C)cc2)C(C)(C)C)ccc2c1OCOC2 [RG-115611]	745	0.703	1580	–
Cc1cc(C)cc(C(=O)N(NC(=O)c2ccc3cc[nH]c3c2)C(C)(C)C)c1 [RG-115689]	13	0.411	100000	–
CCc1c(OC)cccc1C(=O)NN(C(=O)c1ccc(C(=O)OC)cn1)C(C)(C)C [RG-115717]	–	–	–	Fold Induction, Z3 Assay, 33 uM [2]: 9
CCc1c(OC)cccc1C(=O)NN(C(=O)c1cc(C)n(-c2ccccc2)n1)C(C)(C)C [RG-115721]	–	–	–	Fold Induction, Z3 Assay, 33 uM [2]: 2
CCc1c(OC)cccc1C(=O)NN(C(=O)c1nn(C(c2ccccc2)(c2ccccc2)c2ccccc2)c2ccccc12)C(C)(C)C [RG-115722]	–	–	–	Fold Induction, Z3 Assay, 33 uM [2]: 1
CCc1c(OC)cccc1C(=O)NN(C(=O)c1n[nH]c2ccccc12)C(C)(C)C [RG-115723, 1H-Indazole-3-carboxylic acid N-tert-butyl-N′-(2-ethyl-3-methoxy-benzoyl)-hydrazide]	–	–	–	fold induction at 33 µM ([2]; HEK293, read-out: Fold Induction, Z3 Assay, 33 uM): 17
COc1cccc(C(=O)NN(C(=O)c2ccc(C(F)(F)F)nc2OC)C(C)(C)C)c1C [RG-115834]	–	–	–	Fold Induction, 27-63 Assay, 3.3 uM [1]: 1900; Fold Induction, 27-63 Assay, 33 uM [1]: 1837; 27-63 assay Rel Max FI [1]: 0.733; EC50 [1]: 1170 nM
